Laboratory results published in US12227577B2, “Combination of a PD-1 antagonist, an ATR inhibitor and a platinating agent for the treatment of cancer” (Merck Patent GMBH, priority 2018, dated 2025).
Where “and” joins values, the source holds several entries; their conditions need not be identical. Equal values may be shown once.

Experiments:
[1] = tested on: MB49 syngeneic tumor model; assay: Triple combination treatment in murine subcutaneous MB49 tumor model; assay type: in vivo, C57BL/6 female mice; details: for Median survival: Kaplan-Meier, sacrificed when tumor volume reached 2000 mm^3; for Tumor Size (mm^3) at day 18: day 18, Mean ± SEM, Avelumab 400 μg i.v. days 3, 6, 9, Carboplatin 60 mg/kg i.p., ATRi 1 60 mg/kg p.o. days 0, 7; for TGI % (%): day 18 after start of treatment, vs control group; for tumor growth inhibition effect: in words, compared to the control group
Protocol: C57BL/6 female mice at 8-9 weeks of age where subcutaneously injected into the right flank with 0.5×10^6 of viable MB49 tumor cells in 0.1 mL PBS. The animals were randomized and therapy initiated when the tumors reached a volume of around 100 mm^3 (day 0 of treatment). Each group consisted of 10 tumor-bearing mice. The tested compounds were administered to the mice according to the predetermined regimen shown in the experimental design Table 14:
The tumor size was then used for calculation of T/C values.
The body weight was also measured twice a week. Mice were sacrificed when the tumor volume reached 2000 mm^3.
One-way analysis of variance (ANOVA) with Bonferroni's Multiple Comparisons Test, two-way ANOVA, unpaired t-test and Log-rank test from the GraphPad Prism software package were used (Prism 5 for Windows, Version 5.0, GraphPad Software Inc., San Diego, CA). p<0.05 was considered to be statistically significant.

[2] = tested on: MC38 colorectal cancer syngeneic model; assay: Experiment 2A: triple combination of Avelumab, Cisplatin and ATRi 1 in subcutaneous MC38 model; assay type: in vivo, C57BL/6 mice; details: Exp. 2A; for Tumor-free mice on day 66: 10 mice per group; for Median survival: Kaplan-Meier, survival data up to day 66, euthanized at tumor burden of 3,000 mm^3; for TGI % (%) / T/C (%) / anti-tumor activity: day 17; for T/C (%): treated vs control group mean volume; for anti-tumor activity: in words
Excerpt: The objective of this study was to evaluate the in vivo anti-tumor efficacy of a triple combination treatment comprising avelumab, a platinating agent (cisplatin or carboplatin) and ATRi 1 (Compound 1) in the subcutaneous MC38 colorectal cancer syngeneic model in C57BL/6 mice.
The tumor cells were routinely subcultured twice weekly by trypsin-EDTA treatment.
Treatments were started on day 7 after tumor inoculation when the average tumor size reached approximately 80 mm^3. […] Each group consisted of 10 tumor-bearing mice.
(§1) The major endpoint was to see if the tumor growth could be delayed or mice could be cured. Tumor size was measured twice weekly in two dimensions using a caliper, and the volume was expressed in mm^3 using the formula: V=0.5 a×b^2 where a and b are the long and short diameters of the tumor, respectively. The tumor size was then used for calculation of T/C values. The T/C value (in percent) is an indication of antitumor effectiveness; T and C are the mean volumes of the treated and control groups, respectively, on a given day. TGI was calculated for each group using the formula: TGI (%)=[1−(Ti−T0)/(Vi−V0)]×100; Ti is the average tumor volume of a treatment group on a given day, TO is the average tumor volume of the treatment group on the day of treatment start, Vi is the average tumor volume of the vehicle control group on the same day with Ti, and V0 is the average tumor volume of the vehicle group on the day of treatment start. Animals were euthanized as they reached tumor burden of 3,000 mm^3 per IACUC regulations and the time to reach this endpoint was used for Kaplan-Meier survival analysis.
Statistical analysis of difference in the tumor volume among the groups were conducted on the data obtained at the best therapeutic time point on day 17 after the start of treatment). A one-way ANOVA was performed, and when a significant F-statistics (a ratio of treatment variance to the error variance) was obtained, comparisons between groups were carried out with Games-Howell test. All data were analyzed using SPSS 17.0. p<0.05 was considered to be statistically significant.
(§2) Statistical analysis of difference in survival rate among the groups were conducted on the survival data up to day 66 after the start of treatment. Kaplan-Meier test was performed, all data were analyzed using GraphPad Prism 6.0., comparisons between groups were carried out with Log-rank test, p<0.05 was considered to be statistically significant.
The anti-tumor efficacy of the triple combination avelumab, cisplatin and ATRi 1 was tested according to the above methods and with the experimental design outlined in Table 2.

[3] = 10 mg/kg dose; cited from earlier work
[4] = tested on: MC38 colorectal cancer syngeneic model; assay: Experiment 2B: triple combination of Avelumab, Carboplatin and ATRi 1 in subcutaneous MC38 model; assay type: in vivo, C57BL/6 mice; details: Exp. 2B; for Tumor-free mice on day 66: 10 mice per group; for Median survival: Kaplan-Meier, survival data up to day 66, euthanized at tumor burden of 3,000 mm^3; for TGI % (%) / T/C (%) / anti-tumor activity: day 17; for T/C (%): treated vs control group mean volume; for Tumor Size (mm^3) at day 17: day 17 after start of treatment, Mean ± SEM, Avelumab 400 μg i.v. days 3, 6, 9, Carboplatin 60 mg/kg i.p., ATRi 1 60 mg/kg p.o. days 0, 7; for anti-tumor activity: in words
Protocol: The MC38 tumor cells were maintained in vitro as a monolayer culture in DMEM+2 mM glutamine supplemented with 10% heat inactivated fetal bovine serum, 100 U/ml penicillin and 100 μg/ml streptomycin at 37° C. in an atmosphere of 5% CO2 in air. The tumor cells were routinely subcultured twice weekly by trypsin-EDTA treatment. The cells growing in an exponential growth phase were harvested and counted for tumor inoculation.
Each mouse was inoculated subcutaneously at the right upper flank with MC38 cells (3×10^5) in 0.1 mL of PBS for tumor development. Treatments were started on day 7 after tumor inoculation when the average tumor size reached approximately 80 mm^3. The animals were assigned into groups using an Excel-based randomization software performing stratified randomization based upon their tumor volumes. Each group consisted of 10 tumor-bearing mice. The tested compounds were administered to the mice according to the predetermined regimen shown in the experimental design Table 2 and Table 6, respectively.
as §1
A one-way ANOVA was performed, and when a significant F-statistics (a ratio of treatment variance to the error variance) was obtained, comparisons between groups were carried out with Games-Howell test. All data were analyzed using SPSS 17.0. p<0.05 was considered to be statistically significant.
as §2
The anti-tumor efficacy of the triple combination avelumab, carboplatin and ATRi 1 was tested according to the above methods and with the experimental design outlined in Table 6.

Compound	Median survival [1] [days]	Tumor Size (mm^3) at day 18 [1] [mm^3]	TGI % (%) [1] [%]	tumor growth inhibition effect [1]	Tumor-free mice on day 66 [2]	Median survival [2] [days]	TGI % (%) [2] [%]	T/C (%) [2] [%]	anti-tumor activity [2]	receptor occupancy [3]	tolerability [3]	Tumor-free mice on day 66 [4]	Median survival [4] [days]	TGI % (%) [4] [%]	T/C (%) [4] [%]	Tumor Size (mm^3) at day 17 [4]	anti-tumor activity [4]
Avelumab: fully human monoclonal antibody of the immunoglobulin (Ig) G1 isotype; selectively binds to PD-L1	22.5	1378 ± 175	39.1	moderate tumor growth inhibition effect	0/10	26	41.8	60.2	minor anti-tumor activity	excellent	well tolerated	0/10	31	47.8	54.9	774 mm^3 and 774 ± 153 mm^3	minor anti-tumor activity
N.N.[Cl][Pt][Cl] [Cisplatin, reference compound]					0/10	28	38.7	63.1	minor anti-tumor activity								
N.N.O=C([O-])C1(C(=O)[O-])CCC1.[Pt+2] [Carboplatin, reference compound]	21	1814 ± 212	19.9	did not show any significant tumor growth inhibition effect								0/10	28	55.5	47.6	671 mm^3 and 671 ± 160 mm^3	minor anti-tumor activity
CNCc1ccc(-c2cc(-c3nc(-c4ccc(S(=O)(=O)C(C)C)cc4)cnc3N)on2)cc1 [ATRi 1, 3-[3-(4-Methylaminomethyl-phenyl)-isoxazol-5-yl]-5-[4-(propane-2-sulfonyl)-phenyl]-pyrazin-2-ylamine]	21	2087 ± 333	7.8	did not show any significant tumor growth inhibition effect	0/10	24	11.6	88.9	minor anti-tumor activity			0/10	21	−31.2	129.5		minor anti-tumor activity
